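These data come from cells grown in 96-well plates and exposed to compound for 48 hours at five concentrations. GI50 is the concentration that inhibits growth by half. TGI is the concentration that stops growth completely.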
Legend:
Experiment in all cases: NCI anticancer screen, dose series, 48 h
[1] = tested on: 786-0 renal
[2] = tested on: A498 renal
[3] = tested on: A549 NSCLC
[4] = tested on: ACHN renal
[5] = tested on: BT-549 breast
[6] = tested on: CAKI-1 renal
[7] = tested on: CCRF-CEM leukemia
[8] = tested on: COLO 205 colon
[9] = tested on: DU-145 prostate
[10] = tested on: EKVX NSCLC
[11] = tested on: HCC-2998 colon
[12] = tested on: HCT-116 colon
[13] = tested on: HCT-15 colon
[14] = tested on: HL-60(TB) leukemia
[15] = tested on: HOP-62 NSCLC
[16] = tested on: HOP-92 NSCLC
[17] = tested on: HS 578T breast
[18] = tested on: HT29 colon
[19] = tested on: IGROV1 ovarian
[20] = tested on: KM12 colon
[21] = tested on: LOX IMVI melanoma
[22] = tested on: M14 melanoma
[23] = tested on: MALME-3M melanoma
[24] = tested on: MCF7 breast
[25] = tested on: MDA-MB-231 breast
[26] = tested on: MDA-MB-435
[27] = tested on: MDA-MB-468 breast
[28] = tested on: MOLT-4 leukemia
[29] = tested on: NCI-H226 lung
[30] = tested on: NCI-H23 lung
[31] = tested on: NCI-H460 lung
[32] = tested on: NCI-H522 lung
[33] = tested on: OVCAR-3 ovarian
[34] = tested on: OVCAR-4 ovarian
[35] = tested on: OVCAR-5 ovarian
[36] = tested on: OVCAR-8 ovarian
[37] = tested on: PC-3 prostate
[38] = tested on: RPMI-8226 leukemia
[39] = tested on: RXF 393 renal
[40] = tested on: SF-268 CNS
[41] = tested on: SF-295 CNS
[42] = tested on: SF-539 CNS
[43] = tested on: SK-MEL-2 melanoma
[44] = tested on: SK-MEL-28 melanoma
[45] = tested on: SK-MEL-5 melanoma
[46] = tested on: SK-OV-3 ovarian
[47] = tested on: SN12C renal
[48] = tested on: SNB-19 CNS
[49] = tested on: SNB-75 CNS
[50] = tested on: SR leukemia
[51] = tested on: SW-620 colon
[52] = tested on: T-47D breast
[53] = tested on: TK-10 renal
[54] = tested on: U251 CNS
[55] = tested on: UACC-257 melanoma
[56] = tested on: UACC-62 melanoma
[57] = tested on: UO-31 renal
[58] = tested on: K-562 leukemia

CSc1ccccc1NC(=O)c1ccc2nn(/C(C#N)=C/c3ccccn3)nc2c1
GI50 [1]: 3.68 µM | TGI [1]: 12.4 µM | GI50 [2]: 16 µM | TGI [2]: 29.7 µM | GI50 [3]: 12.2 µM | TGI [3]: 28.5 µM | GI50 [4]: 2.1 µM | TGI [4]: 4.42 µM | GI50 [5]: 6.17 µM | TGI [5]: 18.7 µM | GI50 [6]: 2.78 µM | TGI [6]: 10.8 µM | GI50 [7]: 3.13 µM | TGI [7]: 30.7 µM | GI50 [8]: 1.96 µM | TGI [8]: 4.25 µM | GI50 [9]: 4.38 µM | TGI [9]: 15 µM | GI50 [10]: 9.18 µM | TGI [10]: 21.6 µM | GI50 [11]: 4.08 µM | TGI [11]: 14.6 µM | GI50 [12]: 2.14 µM | TGI [12]: 4.72 µM | GI50 [13]: 1.73 µM | TGI [13]: 3.53 µM | GI50 [14]: 2.07 µM | TGI [14]: 6.58 µM | GI50 [15]: 13.1 µM | TGI [15]: 27.2 µM | GI50 [16]: 6.41 µM | TGI [16]: 23.9 µM | GI50 [17]: 3.19 µM | TGI [17]: 14.3 µM | GI50 [18]: 3.09 µM | TGI [18]: 10.1 µM | GI50 [19]: 4.52 µM | TGI [19]: 15.9 µM | GI50 [20]: 7.64 µM | TGI [20]: 24.2 µM | GI50 [21]: 1.72 µM | TGI [21]: 3.28 µM | GI50 [22]: 2.96 µM | TGI [22]: 10.4 µM | GI50 [23]: 2 µM | TGI [23]: 4.25 µM | GI50 [24]: 3 µM | TGI [24]: 13.1 µM | GI50 [25]: 2.91 µM | TGI [25]: 8.48 µM | GI50 [26]: 2.67 µM | TGI [26]: 9.09 µM | GI50 [27]: 1.84 µM | TGI [27]: 4.2 µM | GI50 [28]: 2.68 µM | TGI [28]: 7.74 µM | GI50 [29]: 13.5 µM | TGI [29]: 28.5 µM | GI50 [30]: 5.13 µM | TGI [30]: 18.2 µM | GI50 [31]: 3.16 µM | TGI [31]: 11.6 µM | GI50 [32]: 1.65 µM | TGI [32]: 3.43 µM | GI50 [33]: 2.29 µM | TGI [33]: 5.95 µM | GI50 [34]: 6.5 µM | TGI [34]: 19.5 µM | GI50 [35]: 4.69 µM | TGI [35]: 17.5 µM | GI50 [36]: 3.14 µM | TGI [36]: 11.7 µM | GI50 [37]: 7.04 µM | TGI [37]: 23.7 µM | GI50 [38]: 2.63 µM | TGI [38]: 8.32 µM | GI50 [39]: 1.78 µM | TGI [39]: 4.16 µM | GI50 [40]: 10.3 µM | TGI [40]: 28.1 µM | GI50 [41]: 13.8 µM | TGI [41]: 27.3 µM | GI50 [42]: 2.8 µM | TGI [42]: 8.64 µM | GI50 [43]: 6.47 µM | TGI [43]: 20 µM | GI50 [44]: 2.06 µM | TGI [44]: 4.57 µM | GI50 [45]: 4.99 µM | TGI [45]: 17.2 µM | GI50 [46]: 16 µM | TGI [46]: 30.1 µM | GI50 [47]: 4.53 µM | TGI [47]: 16.1 µM | GI50 [48]: 12.8 µM | TGI [48]: 26.5 µM | GI50 [49]: 5.8 µM | TGI [49]: 20.6 µM | GI50 [50]: 2.35 µM | TGI [50]: 7.96 µM | GI50 [51]: 2.29 µM | TGI [51]: 5.39 µM | GI50 [52]: 3.5 µM | TGI [52]: 16.6 µM | GI50 [53]: 4.26 µM | TGI [53]: 15.9 µM | GI50 [54]: 4.35 µM | TGI [54]: 15.7 µM | GI50 [55]: 2.57 µM | TGI [55]: 7.49 µM | GI50 [56]: 3.77 µM | TGI [56]: 14.6 µM | GI50 [57]: 2.01 µM | TGI [57]: 4.74 µM

Clc1ccccc1Nc1nnc(-c2c[nH]c3ccccc23)o1
GI50 [1]: 9.52 µM | TGI [1]: 28.1 µM | GI50 [2]: 18.8 µM | TGI [2]: 50.8 µM | GI50 [3]: 1.73 µM | TGI [3]: > 100 µM | GI50 [4]: 1.49 µM | TGI [4]: 37.5 µM | GI50 [5]: 2.27 µM | TGI [5]: 34.6 µM | GI50 [6]: 0.647 µM | TGI [6]: 33.2 µM | GI50 [7]: 0.501 µM | TGI [7]: 26.5 µM | GI50 [8]: 0.867 µM | TGI [8]: 11.7 µM | GI50 [9]: 2.78 µM | TGI [9]: 56.9 µM | GI50 [10]: 3.05 µM | TGI [10]: 77.7 µM | GI50 [11]: 1.85 µM | TGI [11]: 14.2 µM | GI50 [12]: 11.9 µM | TGI [12]: 77.6 µM | GI50 [13]: 0.35 µM | TGI [13]: 23.9 µM | GI50 [14]: 0.321 µM | TGI [14]: 4.56 µM | GI50 [15]: 4.58 µM | TGI [15]: 63.5 µM | GI50 [16]: 11.5 µM | TGI [16]: 54.6 µM | GI50 [17]: 1.52 µM | TGI [17]: 20.6 µM | GI50 [18]: 0.353 µM | TGI [18]: 10.3 µM | GI50 [19]: 0.429 µM | TGI [19]: 33.5 µM | GI50 [58]: 0.308 µM | TGI [58]: > 100 µM | GI50 [20]: 1.57 µM | TGI [20]: 28.7 µM | GI50 [21]: 0.618 µM | TGI [21]: 19.8 µM | GI50 [22]: 0.71 µM | TGI [22]: 20.2 µM | GI50 [23]: 0.498 µM | TGI [23]: 20.1 µM | GI50 [24]: 0.583 µM | TGI [24]: 21.6 µM | GI50 [25]: 2.18 µM | TGI [25]: 23.5 µM | GI50 [26]: 0.233 µM | TGI [26]: 0.778 µM | GI50 [27]: 1.2 µM | TGI [27]: 4.9 µM | GI50 [28]: 0.654 µM | TGI [28]: 23.2 µM | GI50 [29]: 5.39 µM | TGI [29]: > 100 µM | GI50 [30]: 2 µM | TGI [30]: 17.1 µM | GI50 [31]: 0.787 µM | TGI [31]: 15.2 µM | GI50 [32]: 0.305 µM | TGI [32]: 2.38 µM | GI50 [33]: 0.43 µM | TGI [33]: 15 µM | GI50 [34]: 22.7 µM | TGI [34]: > 100 µM | GI50 [35]: 4.33 µM | TGI [35]: 31.9 µM | GI50 [36]: 1.6 µM | TGI [36]: 18.1 µM | GI50 [37]: 1.9 µM | TGI [37]: 57.6 µM | GI50 [38]: 1.31 µM | TGI [38]: > 100 µM | GI50 [39]: 1.52 µM | TGI [39]: 11.1 µM | GI50 [40]: 6.89 µM | TGI [40]: 51.7 µM | GI50 [41]: 0.316 µM | TGI [41]: 10.2 µM | GI50 [42]: 0.708 µM | TGI [42]: 3.24 µM | GI50 [43]: 0.318 µM | TGI [43]: 1.06 µM | GI50 [44]: 10.4 µM | TGI [44]: 27.3 µM | GI50 [45]: 0.966 µM | TGI [45]: 7.39 µM | GI50 [46]: 3.68 µM | TGI [46]: 74.9 µM | GI50 [47]: 0.93 µM | TGI [47]: 21.7 µM | GI50 [48]: 0.721 µM | TGI [48]: 31.5 µM | GI50 [50]: 0.387 µM | TGI [50]: > 100 µM | GI50 [51]: 0.479 µM | TGI [51]: 29.1 µM | GI50 [52]: 4.1 µM | TGI [52]: > 100 µM | GI50 [53]: 8.09 µM | TGI [53]: > 100 µM | GI50 [54]: 0.505 µM | TGI [54]: 17.5 µM | GI50 [55]: 14.1 µM | TGI [55]: 88.7 µM | GI50 [56]: 0.402 µM | TGI [56]: 17.1 µM | GI50 [57]: 1.82 µM | TGI [57]: 49.7 µM

— PubChem BioAssay (NCI)
